Our source for the ED50 and LD50 values is patent publication EP0110298A1, “Acridanone derivatives” (F. HOFFMANN-LA ROCHE & CO. Aktiengesellschaft, priority 1982, dated 1984).

For one data set, the system named is Schistosoma mansoni. The experiment in a line: Schistosomicidal (vermicidal) activity in infected mice, single oral treatment, worm count reduction. It is filed as in vivo. To be noted: 456 h, Albino-Mäuse infected s.c. with cercariae of a Liberia-Stamm of Schistosoma mansoni, single peroral treatment 46 days after infection, section after 19 days, dose giving 50% reduction of worm count (Probitmethode), read-out: VD50 in mg/kg p.o. An excerpt:
Die schistosomizide Wirkung der erfindungsgemässen Stoffe kann tierexperimentell wie folgt nachgewiesen werden: • Albino-Mäuse mit einem Gewicht von 15-18 g werden subcutan mit 60 + 5 Cercarien eines Liberia-Stammes von Schistosoma mansoni infiziert. 46 Tage nach der Infektion werden die Tiere einmal mit den zu prüfenden Substanzen peroral behandelt. Pro Substanz und Dosierung werden 5-10 Tiere eingesetzt. Als Kontrolle dienen 10 unbehandelte Tiere. Die Sektion erfolgt nach 19 Tagen, worauf Wurmpaare und einzelne Würmer in Mesenterialvenen, Pfortader und Leber herauspräpariert und gezählt werden. Die vermicide Wirkung zeigt sich in einer reduzierten Zahl lebender Parasiten im Vergleich zu der Zahl in den Kontrolltieren.
Zur Auswertung wird die prozentuale Reduktion der Parasiten bei behandelten Tieren im Vergleich zu unbehandelten Kontrolltieren berechnet. Man bestimmt die VD 50 nach der Probitmethode. Die VD50 ist diejenige vermizide Dosis, welche eine 50-proz. Reduktion der Wurmzahl bewirkt.

The nature of data set [1]: Acute toxicity (DL50) after single oral administration to mice. The following applies: mouse, in vivo, read-out: DL50 in mg/kg p.o. The source says:
In der nachfolgenden Tabelle werden die Resultate dargestellt, welche mit einigen repräsentativen erfindungsgemässen Substanzen erhalten worden sind. Angegeben werden für jede der darin figurierenden Verbindung die VD50 in mg/kg p.o. und, für einige dieser Verbindungen, die DL50 in mg/kg bei einmaliger oraler Verabreichung an Mäusen.

Structures are written as SMILES. Where a name gives a salt, the structure may show the parent alone.

Consider `CN1CCN(CCn2c3ccccc3c(=NNc3nccs3)c3ccccc32)CC1` [10-12-(4-Methyl-1-piperazinyl)äthyl]-9-acridanon-(2-thiazolyl)hydrazon.2,5 HCl], for which, in the data set with Schistosoma mansoni, the ED50 turned out to be 2.4 mg/kg. For the same compound, the LD50 in data set [1] is 625 to 1250 mg/kg.

In the case of `NCCn1c2ccccc2c(=NNc2nccs2)c2ccccc21` [10-(2-Aminoäthyl)-9-acridanon-2-thiazolyl-hydrazon-dihydrochlorid], the ED50 in the data set with Schistosoma mansoni is 2.6 mg/kg. Further, the LD50 in data set [1] was 156 to 312 mg/kg.

With `c1ccc2c(c1)c(=NNc1nccs1)c1ccccc1n2CCN1CCCCC1` [10-[2-(1-Piperidinyl)äthyl]-9-acridanon-(2-thiazolyl)hydrazon-l,5 HCl], the ED50 in the data set on Schistosoma mansoni worked out at 9 mg/kg. Further, the LD50 in data set [1] was 312 to 625 mg/kg.

As for `c1ccc2c(c1)c(=NN=C1NCCS1)c1ccccc1n2CCN1CCCC1` [10-[2-(1-Pyrrolidinyl)äthyl]-9-acridanon-(2-thiazolidinyliden)hydrazon], the ED50 with Schistosoma mansoni turned out to be 6.2 mg/kg. Moreover, in data set [1], the LD50 lay within 156 to 312 mg/kg.

`CC(=O)N1CCN(CCn2c3ccccc3c(=NN=C3NCCS3)c3ccccc32)CC1` [10-[2-(4-Acetyl-1-piperazinyl)äthyl]-9-acridanon-(2-thiazolidinyliden)-hydrazon]: in the data set with Schistosoma mansoni, the ED50 was found to be 3.4 mg/kg. Further, in data set [1], the LD50 fell in the range of 1250 to 2500 mg/kg.

As to `CC(=O)N1CCN(CCn2c3ccccc3c(=NNc3nccs3)c3ccccc32)CC1` [10-[2-(4-Acetyl-1-piperazinyl)äthyl]-9-acridanon-(2-thiazolyl)hydrazon-dihydrochlorid], in the data set with Schistosoma mansoni, the ED50 was found to be 2.6 mg/kg. Also, the LD50 in data set [1] lay in the range of 312 to 625 mg/kg.

In the case of `CN1CCN(CCn2c3ccccc3c(=NN=C3NCCS3)c3ccccc32)CC1` [10-[2-(4-Methyl-1-piperazinyl)äthyl]-9-acridanon-(2-thiazolidinyliden)hydrazon], the ED50 in the data set with Schistosoma mansoni was determined as 4 mg/kg. The LD50 in data set [1] lay within 156 to 312 mg/kg.

For the compound `CN(C)CCn1c2ccccc2c(=NN=C2NCCS2)c2ccccc21` [10-[2-(Dimethylamino)-äthyl]-9-acridanon-(2-thiazolidinyliden)hydrazon], the ED50 in the data set with Schistosoma mansoni came out at 6.4 mg/kg. In addition, the LD50 in data set [1] lay within 250 to 500 mg/kg.

Consider `CN(C)CCn1c2ccccc2c(=NNc2nccs2)c2ccccc21` [10-[2-(Dimethylamino)äthyl]-9-acridanon-(2-thiazolyl)hydrazon-dihydrochlorid], for which the ED50 with Schistosoma mansoni was 4.9 mg/kg. Also, the LD50 in data set [1] was in the range of 312 to 625 mg/kg.

Consider `CCN(CC)CCn1c2ccccc2c(=NNc2nccs2)c2ccccc21` [10-[2-(Diäthylamino)äthylJ-9-acridanon-(2-thiazolyl)hydrazon-dihydrochlorid], for which the ED50 in the data set on Schistosoma mansoni is 3.3 mg/kg. Also, the LD50 in data set [1] is more than 5000 mg/kg.

Consider `CCN(CC)CCn1c2ccccc2c(=NN=C2NCCS2)c2ccccc21` [10-[2-(Diäthylamino)äthyl]-9-acridanon-(2-thiazolidinyliden)hydrazon], for which, in the data set with Schistosoma mansoni, the ED50 amounted to 9.5 mg/kg. In addition, in data set [1], the LD50 was in the range of 312 to 625 mg/kg.

For `CN(C)CCCn1c2ccccc2c(=NN=C2NCCS2)c2ccccc21` [10-[3-(Dimethylamino)propyl]-9-acridanon-(2-thiazolidinyliden)hydrazon], the ED50 in the data set with Schistosoma mansoni was found to be 4.7 mg/kg. Besides, the LD50 in data set [1] lay in the range of 125 to 250 mg/kg.

On to `CN(C)CCCn1c2ccccc2c(=NNc2nccs2)c2ccccc21.Cl.Cl` [10-[3-(Dimethylamino)propyl]-9-acridanon-(2-thiazolyl)hydrazon-dihydrochlorid], for which the ED50 in the data set on Schistosoma mansoni is 3.5 mg/kg. In addition, in data set [1], the LD50 is 312 to 625 mg/kg.
